Results from patent US20240358822A1, “ALLERGY TREATMENT” (ENA RESPIRATORY PTY LTD, priority 2021, published 2024).

Key:
Assay type in all cases: cell-based, human
[1] = system: PBMC from grass pollen allergic patients; experiment: CD4+ T regulatory cell induction in PBMC, 6 days, Flow Cytometry / FlowSOM
Procedure: FIG. 14. […] PBMC from grass pollen allergic patients were cultured for 6 days with or without allergen (Phlp at 10 μg/mL) and with or without a range of concentrations of INNA-001 or Pam2CSK4 (0.3, 3 and […]). At day 6 the cells were harvested, washed and stained for anti-human CD4, CD25, CD127 and Foxp3. Analysis was performed by Flow Cytometry. All data shown are mean±SEM. Graphs represent changes from baseline (untreated). Statistical analysis was performed using ANOVA with Dunn's multiple comparisons test for within-group comparisons. Mann-Whitney U test was performed for between-group comparisons. Statistical significance in the +Phlp group: *p<0.05, **p<0.01, ***p<0.001.
FIG. 15. […] PBMC from grass pollen allergic patients were cultured for 6 days with or without allergen (Phlp at 10 μg/mL) and with or without a range of concentrations of INNA-001 or Pam2CSK4 (0.3, 3 and 10 μg/ml). At day 6 the cells were harvested, washed and stained for anti-human CD4, CD25, CD127, Foxp3 and CD45RO. Analysis was performed by Flow Cytometry. All data shown are mean±SEM. Graphs represent changes from baseline (untreated) (A) naive FoxP3^+CD25^+CD127^−CD4^+CD45RO^− cells, and (B) memory FoxP3^+CD25^+CD127^−CD4^+CD45RO^+ cells. Statistical analysis was performed using ANOVA with Dunn's multiple comparisons test for within-group comparisons. Mann-Whitney U test was performed for between-group comparisons. Statistical significance in the +Phlp group: *p<0.05, **p<0.01, ***p<0.001.
FIG. 16. […] PBMC from grass pollen allergic patients (N=3 for INNA=003 & INNA-006, N=7 for INNA-001 & Pam2CSK4) were cultured for 6 days with or without allergen (Phlp at 10 μg/mL) and with or without a range of concentrations of INNA-001, INNA-003, INNA-006 or Pam2CSK4 (0.3, 3 and 10 μg/mL). At day 6 the cells were harvested, washed and stained for anti-human CD4, CD25, CD127, Foxp3 and CD45RO. Analysis was performed by Flow Cytometry. All data shown are mean±SEM.
FIG. 17. […] PBMC from grass pollen allergic patients were cultured for 6 days with allergen (Phlp at 10 μg/mL) and with or without INNA-001 or Pam2CSK4 (3 μg/mL). At 6 days the cells were harvested, washed and stained for anti-human Foxp3, CD4, CD25, CD45RO, CD127, CTLA4 and SABT1. Analysis was performed by Flow Cytometry. The data were further analysed using unbiased FlowSOM technique. Foxp3^+ T regulatory cell metacluster identification following treatment with INNA-001 A) in the presence of Phlp (N=3) or B) absence of Phlp (N=3). C) Heatmap display of the marker expression profile of the identified metaclusters (N=3). D) Quantification of population abundance of the metaclusters 3, 5 and 9 following INNA-001 and Pam2CSK4 treatment in the presence of Phlp (N=3). […]

[2] = system: PBMC from grass pollen allergic patients; experiment: Expansion of Th2 cell phenotypes on allergen stimulation, Flow Cytometry; conditions: in the presence of allergen; 6 days
Procedure: FIG. 3. Treatment with INNA-001 suppresses the expansion of pro-allergic Th2 cell phenotypes in response to allergen stimulation. PBMC from grass pollen allergic patients (N=12) were cultured for 6 days with or without allergen (Phlp at 10 μg/mL) and with or without a range of concentrations of INNA-001. After 6 days, the cells were harvested, washed and activated with phorbol 12-myristate 13-acetate (25 ng/mL) and ionomycin (1 μg/mL) for 5 hours. Brefeldin A (10 μg/mL) was added for the final 4 hours of stimulation. Subsequently the cells were washed and stained for anti-human CD4, CD27, CRTH2, CD49d, CD161, IL-13 and IL-4. Analysis was performed by Flow Cytometry. Proliferation of cells was measured using CellTrace violet. All data shown are mean±SEM. Graphs represent normalised changes from baseline (untreated). Statistical analysis was performed using ANOVA with Dunn's multiple comparisons test for within-group comparisons (*p<0.05, **p<0.01, ***p<0.001 for the +Phlp group).
FIG. 4. […]
PBMC from patients with allergy to Timothy grass pollen (Phleum pratense) were cultured for 6 days in the presence or absence of allergen and INNA-001 or control compounds. Allergen-induced proliferation and cytokine production were assessed and the phenotype of proliferating allergen-stimulated T cells was determined.

[3] = system: PBMC from grass pollen allergic patients; experiment: IL-10 producing monocytes after 24 hours PBMC culture, Flow Cytometry
Procedure: FIG. 12. […] PBMC from grass pollen allergic patients were cultured for 24 hours with or without allergen (Phlp at 10 μg/mL) and with or without a range of concentrations of INNA-001 or Pam2CSK4 (0.3, 3 and 10 μg/mL). At 24 hours the cells were harvested, washed and stained for anti-human CD14, CD16 and IL-10. Analysis was performed by Flow Cytometry. A) Flow Cytometry representative plots (N=3) for percentage of IL-10-producing subpopulation of non-classical (CD14^low CD16^+) monocytes after treatment with […] of TLR2 agonists (INNA-001 or Pam2CSK4) in the presence of Phlp. B) Quantification (N=12) of IL-10 producing non-classical (CD14^low CD16^+) and C) Quantification (N=12) of IL-10 producing classical (CD14^highCD16^−) monocytes. All data shown are mean±SEM. Graphs represent changes from baseline (untreated). Statistical analysis was performed using ANOVA with Dunn's multiple comparisons test for within-group comparisons. Mann-Whitney U test was performed for between-group comparisons. Statistical significance in the +Phlp group: *p<0.05, **p<0.01, ***p<0.001.
FIG. 13. […] PBMC from grass pollen allergic patients (N=3) were cultured for 24 hours with or without allergen (Phlp at 10 μg/mL) and with or without a range of concentrations of INNA-001, INNA-003 or INNA-006 (0.3, 3, 10 and 30 μg/ml). At 24 hours the cells were harvested, washed and stained for anti-human CD14, CD16 and IL-10. Analysis was performed by Flow Cytometry. All data shown are mean±SEM.
To examine it, PBMC from patients with allergy to Timothy grass pollen (Phleum pratense) were cultured with INNA-001 or control TLR2 agonist compounds, in the presence or absence of allergen, for 24 hours. At 24 hours the cells were harvested, washed and stained for IL-10 and the monocyte markers CD16 and CD14, using relevant anti-human antibodies. Analysis of the monocyte populations (classical and non-classical monocytes) was performed by Flow Cytometry. Lymphoid cells were excluded using antibodies against lineage markers CD3, CD4, CD15, CD19, CD56.

[4] = system: PBMC from cat allergic patients; experiment: IL-10 production by PBMC of cat allergic patients, ELISA; conditions: 24 hours, 72 hours, 6 days; cat allergen Feld 1
Procedure: FIG. 11. […] PBMC from cat allergic patients (N=3) were cultured for 24 hours, 72 hours or 6 days, with or without allergen (Feld 1 0.1 or […]), in the presence or absence of a range of INNA-001, INNA-006 or Pam2CSK4 concentrations (0.3, 3, 10 and 30 μg/mL). The culture supernatants were harvested and the levels of IL-10 were measured by Elisa.
(§1) PBMC from patients with allergy to Timothy grass pollen (Phleum pratense) or cat (Fel d 1) were cultured for 24 hours, 72 hours or 6 days, in the presence or absence of allergen and INNA-001, INNA-006 or Pam3CSK4 (a TLR2 agonist known to induce IL-10 production) and the production of IL-10 and IL-6 (used as a control, TLR2-induced cytokine) was measured in the cell culture supernatants.

[5] = system: PBMC from grass pollen allergic patients; experiment: IL-6 production by PBMC at 24 hours, ELISA
Procedure: (§2) FIG. 9. […] PBMC from grass pollen allergic patients (N=3) were cultured for 24 hours with or without a range of allergen concentrations (Phlp at […]), in the presence or absence of a range of INNA-001, INNA-006 or Pam2CSK4 concentrations (from 0.01 to 10 μg/mL). The culture supernatants were harvested and the levels of IL-10 (A) and IL-6 (B) were measured by ELISA. All data shown are mean±SEM.
as §1

[6] = system: PBMC from grass pollen allergic patients; experiment: Kinetics of IL-10 production by PBMC, ELISA
Procedure: as §2
FIG. 10. […] PBMC from grass pollen allergic patients (N=3) were cultured for 24 hours, 72 hours or 6 days, with or without allergen (Phlp […]), in the presence or absence of a range of INNA-001, INNA-006 or Pam3CSK4 concentrations (0.3, 3, 10 and 30 μg/mL). The culture supernatants were harvested and the levels of IL-10 were measured by ELISA. All data shown are mean±SEM.
as §1

Substance | memory FoxP3+CD25+CD127-CD4+CD45RO+ T regulatory cells [1] | naive FoxP3+CD25+CD127-CD4+CD45RO- T regulatory cells [1] | total number of CD4+CD25+CD127- regulatory T cells [1] | expansion of Foxp3+ T regulatory cell metaclusters MC3, MC5 and MC9 (FlowSOM) ([1]; 3 μg/mL) | number of proliferating IL-13 producing-Th2 (CD4+CD27-CRTH2+IL-13+) cells [2] | number of IL-10+ non-classical CD14low/CD16+ monocytes ([3]; 24 hours) | numbers of IL-10+ classical CD14high/CD16- monocytes ([3]; 24 hours) | influence of allergen on IL-10+ classical monocytes ([3]; with versus without allergen) | IL-10 upregulation in PBMC of cat allergic subjects [4] | IL-6 generation at 24 hours [5] | influence of parallel allergen stimulation on IL-6 production ([5]; with versus without allergen) | IL-10 generation at 24 hours ([6]; 24 hours, presence or absence of allergen) | IL-10 levels at 72 hours and 6 days ([6]; 72 hours, 6 days) | influence of parallel allergen stimulation on IL-10 production ([6]; with versus without allergen)
Pam2CSK4 | Analogous | Analogous | Analogous results | the same metaclusters were also found prominent | also reduced the number of proliferating Th2 (CD4+CD27−CRTH2+IL-13+) cells, but to a lesser degree than INNA-001 | increase, although slightly less pronounced | lower increase | independent of the presence of allergen |  |  |  |  |  | 
Pam3CSK4 |  |  |  |  |  |  |  |  | stimulated dose-dependent upregulation of IL-10 | strong IL-6 generation | did not appear to influence | rapid, dose-dependent generation of IL-10 | remained high, but with declining levels | did not appear to considerably influence
